Experiments:
rats [1] = experiment: Pre-pulse inhibition of startle; type: in vivo; conditions: for treatment effects on PPI: cohort 1 (20 mg/kg 5-MeO-DMT)
Method: (§1) In this instance the animals were 9 weeks old at the initiation of drug exposures and we selected just the high (20 mg/kg) dose of 5-MeO-DMT from the molecular study. […] Due to the number of behavioral paradigms to be completed by each animal we divided the study into two cohorts staggered by two weeks with 8 animals coming from each cohort to make up the 16 animals for each treatment group. 23 hours after 5-MeO-DMT administration the animals were introduced to the open field arena where they were allowed to freely explore the area for 5 mins. Following the open field test (OFT) animals were returned to their home cage for 2 hours before beginning either the elevated plus maze (EPM) or pre-pulse inhibition (PPI) testing. 24 hours after completing the OFT animals were returned to the chamber for the first session in novel object (NO1) testing. The animals were returned to their home cage for 2 hours before beginning the EPM or PPI test. 24 hours after NO1 the animals returned to the open field chamber for the second session in novel object (N02) testing. After completing N02 animals were returned to their home cage for 2 hours before they underwent the forced swim test (FST) pre-test. 24 hours later the animals were returned to the FS cylinders for the FST. Upon completion of the FST all animals were euthanized. A timeline of this experimental cohort is described in FIG. 8A.
(§2) The experiment was conducted as described for cohort 1 for the first 13 days of injections. There are a number of notable differences in experimental procedures between the two cohorts of animals to be highlighted. […] Finally, the dose of 5-MeO-DMT was reduced to 10 mg/kg. The order and timing of all the behavioral paradigms were kept constant between the cohorts. A timeline of this experimental cohort is described in FIG. 8B. Additionally, 5-MeO-DMT administrations were staggered so animals could be observed for the duration of acute drug effects and to ensure recovery prior to the next animal being injected. The typical symptoms of psychedelic drug administration outlined above were reproduced in all animals administered 5-MeO-DMT.
The PPI protocol employed was based on a procedure previously described by Geyer and colleagues (Geyer, M. A., K. Krebs-Thomson, D. L. Braff & N. R. Swerdlow (2001) Pharmacological studies of prepulse inhibition models of sensorimotor gating deficits in schizophrenia: a decade in review. Psychopharmnacology, 156, 117-154). Each rat was restrained in an appropriately sized cylindrical holder that was placed on a movement-sensitive platform and maintained in a soundproof chamber. The animal was allowed to habituate to a white noise background of 70 dB for 5 mins before receiving 5 20 ms startle trials of 120 dB separated by randomized intervals of 10-20 s. Immediately thereafter, each rat received 5 separate presentations with one of the pre-pulse stimuli of 72, 76, 80, or 84 dB followed 100 ms later by the 120 dB acoustic startle stimulus. Each trial was separated by a time interval of 10-20 s. The 4 pre-pulse stimuli were delivered in a randomised manner and included periods in which there was no pre-pulse or startle stimulus. The session terminated with five further startle trials. Randomisation of the sound signals delivered and quantification of the startle movements were recorded from the movement-sensitive platform. Signals were integrated using the software supplied by the manufacturers of equipment hardware (MED-Associates Inc., St. Albans, VT, USA).

rats [2] = experiment: Open field test; type: in vivo; conditions: for duration of rearing behaviour, main effect: 5-MeO-DMT p=0.0047, cocaine p=0.0380; for duration of time spent in the centre of the arena: any treatment group; for number of rearings, main effect: cocaine p=0.0202, 5-MeO-DMT p=0.0020; for duration of time spent in the centre of the field: any of treatments
Method: as §1, §2
The open field environment provides a fast and relatively easy test that determines a variety of behavioral information ranging from general ambulatory ability to data regarding the emotionality of the subject animal. The technique enables investigation of different pharmacological compounds for anxiolytic or anxiogenic effects (Seibenhener, M. L. & M. C. Wooten (2015) Use of the Open Field Maze to Measure Locomotor and Anxiety-like Behavior in Mice. Journal of Visualized Experiments: JoVE, 52434). Rodents show distinct aversions to large, brightly lit, open and unknown environments (Choleris, E., A. W. Thomas, M. Kavaliers & F. S. Prato (2001) A detailed ethological analysis of the mouse open field test: effects of diazepam, chlordiazepoxide and an extremely low frequency pulsed magnetic field. Neuroscience & Biobehavioral Reviews, 25, 235-260). These features are incorporated in the open field test and form the basis of its use in behavioural paradigm testing. There are various parameters that can be quantified from the open field, but the primary parameter of interest is thigmotaxis, the tendency of a subject to remain close to walls as determined by measuring time spent in inner zones versus outer zones of the maze (Simon, P., R. Dupuis & J. Costentin (1994) Thigmotaxis as an index of anxiety in mice. Influence of dopaminergic transmissions. Behavioural brain research, 61, 59-64). […] For the OFT, animals were placed in the open field arena and allowed to freely explore for 5 minutes. The session was recorded and analysed by EthoVision software which quantified the total distance covered. The number of entries into and total time spent in the centre of the arena were scored by two observers blind to experimental conditions (FIG. 9).

[3] = cohort 1, cocaine+20 mg/kg 5-MeO-DMT

SMILES | treatment effects on PPI (rats [1]) | inhibition of the startle response at 80 dB or 84 dB relative to the 72 dB pre-pulse (rats [1]; cohort 1, 5-Meo-treated animals) | percentage inhibition of startle with change in intensity of the pre-pulse (rats [1]; cohort 1, cocaine+20 mg/kg 5-MeO-DMT combination) | PPI at the 80 dB pre-pulse (rats [1]; cohort 1, combination group relative to control and 5-MeO-DMT alone) | treatment effect on PPI (rats [1]; cohort 2 (10 mg/kg 5-MeO-DMT)) | PPI at 84 dB relative to 72 dB pre-pulse (rats [1]; cohort 2, cocaine+10 mg/kg 5-MeO-DMT) | number of entries into the centre of the open field arena (rats [2]; cohort 1, 20 mg/kg 5-MeO-DMT, p=0.0139, no post hoc differences) | duration of rearing behaviour, main effect (rats [2]; cohort 1) | duration of time spent in the centre of the arena (rats [2]; cohort 1) | number of rearings, main effect (rats [2]; cohort 1) | duration of rearing behaviour (rats [2]; [3]) | number of rearings (rats [2]; [3]) | total distance travelled (rats [2]; cohort 1, cocaine+20 mg/kg 5-MeO-DMT relative to cocaine+vehicle) | total distance travelled (rats [2]; cohort 1, saline+20 mg/kg 5-MeO-DMT relative to saline+vehicle) | number of rearings (rats [2]; cohort 2, 10 mg/kg 5-MeO-DMT, p=0.0031, no post hoc differences) | duration of rearings (rats [2]; cohort 2, 10 mg/kg 5-MeO-DMT, p=0.0837) | duration of time spent in the centre of the field (rats [2]; cohort 2) | total distance travelled (rats [2]; cohort 2, saline+10 mg/kg 5-MeO-DMT relative to saline+vehicle) | percentage inhibition of startle with change in intensity of the pre-pulse (rats [1]; cohort 1, cocaine alone) | number of entries into the centre of the open field (rats [2]; cohort 2, cocaine p=0.0448, no post hoc differences)
COc1ccc2[nH]cc(CCN(C)C)c2c1 [5-MeO-DMT, 5-methoxy-N,N-dimethyltryptamine] | no treatment effects on PPI | significant increase in the inhibition of the startle response | no change in percentage inhibition of startle | significant attenuation of PPI | no treatment effect on PPI | significant increase in PPI | significantly affected | affected | not affected by any treatment group | significantly affected | significant decrease in the combination group relative to control | significantly decreased the number of rearings relative to the control and cocaine-treated animals | reduction in the total distance travelled | reduction in the total distance travelled | significant effect | not the duration of rearings | not changed by any of treatments | specific reduction in the total distance travelled |  | 
COC(=O)[C@H]1[C@@H](OC(=O)c2ccccc2)C[C@@H]2CC[C@H]1N2C.Cl [cocaine, cocaine hydrochloride, reference compound] | no treatment effects on PPI |  |  |  |  |  |  | affected | not affected by any treatment group | significantly affected |  |  |  |  |  |  | not changed by any of treatments |  | no change in percentage inhibition of startle | significantly affected

From US20240299353A1, “COMPOSITIONS AND METHODS FOR TREATING […] 5-MEO-DMT” (Alvarius Pharmaceuticals Ltd., priority 2021, published 2024)
